{"source": "ChEMBL document CHEMBL1151711", "about": "“Studies on quinones. Part 44: Novel angucyclinone N-heterocyclic analogues endowed with antitumoral activity” (Bioorg Med Chem, 2008)", "key": {"MRC5": {"tested_on": "MRC5", "test": "Cytotoxicity against human MRC5 cells after 3 days by MTT assay", "assay_type": "cell-based", "conditions": "MRC5, 72 h"}, "AGS": {"tested_on": "AGS", "test": "Cytotoxicity against human AGS cells after 3 days by MTT assay", "assay_type": "functional, cell-based", "conditions": "72 h"}, "J82": {"tested_on": "J82", "test": "Cytotoxicity against human J82 cells after 3 days by MTT assay", "assay_type": "functional, cell-based", "conditions": "J82, 72 h"}, "HL-60": {"tested_on": "HL-60", "test": "Cytotoxicity against human HL-60 cells after 3 days by MTT assay", "assay_type": "functional, cell-based", "conditions": "HL-60, 72 h"}, "SK-MES-1": {"tested_on": "SK-MES-1", "test": "Cytotoxicity against human SK-MES-1 cells after 3 days by MTT assay", "assay_type": "functional, cell-based", "conditions": "SK-MES-1, 72 h"}}, "data": [{"compound": "Cn1c(=O)c2c3c(cnc2n(C)c1=O)C(=O)C=CC3=O", "values": [{"measurement": "IC50", "setting": "MRC5", "result": 72.8, "unit": "µM"}, {"measurement": "IC50", "setting": "AGS", "result": 82.1, "unit": "µM"}, {"measurement": "IC50", "setting": "J82", "result": 78.6, "unit": "µM"}, {"measurement": "IC50", "setting": "HL-60", "result": 31.5, "unit": "µM"}, {"measurement": "IC50", "setting": "SK-MES-1", "result": 67.5, "unit": "µM"}]}, {"compound": "Cc1nc2c(c3c1C(=O)c1ccccc1C3=O)C(=O)CCC2", "values": [{"measurement": "IC50", "setting": "MRC5", "result": 21.5, "unit": "µM"}, {"measurement": "IC50", "setting": "AGS", "result": 9.5, "unit": "µM"}, {"measurement": "IC50", "setting": "J82", "result": 7.7, "unit": "µM"}, {"measurement": "IC50", "setting": "HL-60", "result": 45.2, "unit": "µM"}, {"measurement": "IC50", "setting": "SK-MES-1", "result": 11.9, "unit": "µM"}]}, {"compound": "O=C1c2ccccc2C(=O)c2c1cnc1c2C(=O)CCC1", "values": [{"measurement": "IC50", "setting": "MRC5", "result": 41.3, "unit": "µM"}, {"measurement": "IC50", "setting": "AGS", "result": 19, "unit": "µM"}, {"measurement": "IC50", "setting": "J82", "result": 62.6, "unit": "µM"}, {"measurement": "IC50", "setting": "HL-60", "result": 73.2, "unit": "µM"}, {"measurement": "IC50", "setting": "SK-MES-1", "result": 51.6, "unit": "µM"}]}, {"compound": "O=C1c2c(O)cccc2C(=O)c2c3c(cc(O)c21)CCCC3", "values": [{"measurement": "IC50", "setting": "MRC5", "result": "> 100", "unit": "µM"}, {"measurement": "IC50", "setting": "AGS", "result": 41.6, "unit": "µM"}, {"measurement": "IC50", "setting": "J82", "result": 69.9, "unit": "µM"}, {"measurement": "IC50", "setting": "HL-60", "result": "> 100", "unit": "µM"}, {"measurement": "IC50", "setting": "SK-MES-1", "result": 73.7, "unit": "µM"}]}, {"compound": "Cc1nc2c(c3c1C(=O)C=CC3=O)C(=O)CCC2", "values": [{"measurement": "IC50", "setting": "MRC5", "result": 20.5, "unit": "µM"}, {"measurement": "IC50", "setting": "AGS", "result": 22, "unit": "µM"}, {"measurement": "IC50", "setting": "J82", "result": 5.6, "unit": "µM"}, {"measurement": "IC50", "setting": "HL-60", "result": 46.5, "unit": "µM"}, {"measurement": "IC50", "setting": "SK-MES-1", "result": 3.5, "unit": "µM"}]}, {"compound": "O=C1c2cnc3c(c2C(=O)c2cccc(O)c21)C(=O)CCC3", "values": [{"measurement": "IC50", "setting": "MRC5", "result": 11.3, "unit": "µM"}, {"measurement": "IC50", "setting": "AGS", "result": 1.6, "unit": "µM"}, {"measurement": "IC50", "setting": "J82", "result": 9.2, "unit": "µM"}, {"measurement": "IC50", "setting": "HL-60", "result": 5.6, "unit": "µM"}, {"measurement": "IC50", "setting": "SK-MES-1", "result": 3.7, "unit": "µM"}]}, {"compound": "CC1(C)CC(=O)c2c(ncc3c2C(=O)C=CC3=O)C1", "values": [{"measurement": "IC50", "setting": "MRC5", "result": 39.9, "unit": "µM"}, {"measurement": "IC50", "setting": "AGS", "result": 75.2, "unit": "µM"}, {"measurement": "IC50", "setting": "J82", "result": 95.3, "unit": "µM"}, {"measurement": "IC50", "setting": "HL-60", "result": 43.6, "unit": "µM"}, {"measurement": "IC50", "setting": "SK-MES-1", "result": "> 100", "unit": "µM"}]}, {"compound": "Cn1c(=O)c2c3c(cnc2n(C)c1=O)C(=O)c1c(O)cccc1C3=O", "values": [{"measurement": "IC50", "setting": "MRC5", "result": 6.8, "unit": "µM"}, {"measurement": "IC50", "setting": "AGS", "result": 5.9, "unit": "µM"}, {"measurement": "IC50", "setting": "J82", "result": 9.2, "unit": "µM"}, {"measurement": "IC50", "setting": "HL-60", "result": 15.9, "unit": "µM"}, {"measurement": "IC50", "setting": "SK-MES-1", "result": 8.1, "unit": "µM"}]}, {"compound": "Cc1nc2c(c3c1C(=O)c1c(O)cccc1C3=O)c(=O)n(C)c(=O)n2C", "values": [{"measurement": "IC50", "setting": "MRC5", "result": "> 100", "unit": "µM"}, {"measurement": "IC50", "setting": "AGS", "result": 70, "unit": "µM"}, {"measurement": "IC50", "setting": "J82", "result": "> 100", "unit": "µM"}, {"measurement": "IC50", "setting": "HL-60", "result": "> 100", "unit": "µM"}, {"measurement": "IC50", "setting": "SK-MES-1", "result": "> 100", "unit": "µM"}]}, {"compound": "Cc1nc2c(c3c1C(=O)C=CC3=O)c(=O)n(C)c(=O)n2C", "values": [{"measurement": "IC50", "setting": "MRC5", "result": 67.1, "unit": "µM"}, {"measurement": "IC50", "setting": "AGS", "result": 50.3, "unit": "µM"}, {"measurement": "IC50", "setting": "J82", "result": 72.4, "unit": "µM"}, {"measurement": "IC50", "setting": "HL-60", "result": 26.3, "unit": "µM"}, {"measurement": "IC50", "setting": "SK-MES-1", "result": 70.2, "unit": "µM"}]}, {"compound": "Cn1c(=O)c2c3c(cnc2n(C)c1=O)C(=O)c1ccccc1C3=O", "values": [{"measurement": "IC50", "setting": "MRC5", "result": 12.6, "unit": "µM"}, {"measurement": "IC50", "setting": "AGS", "result": 3.5, "unit": "µM"}, {"measurement": "IC50", "setting": "J82", "result": 8.7, "unit": "µM"}, {"measurement": "IC50", "setting": "HL-60", "result": 20.4, "unit": "µM"}, {"measurement": "IC50", "setting": "SK-MES-1", "result": 8.9, "unit": "µM"}]}, {"compound": "Cc1nc2c(c3c1C(=O)c1ccccc1C3=O)c(=O)n(C)c(=O)n2C", "values": [{"measurement": "IC50", "setting": "MRC5", "result": "> 100", "unit": "µM"}, {"measurement": "IC50", "setting": "AGS", "result": 19.1, "unit": "µM"}, {"measurement": "IC50", "setting": "J82", "result": 24.9, "unit": "µM"}, {"measurement": "IC50", "setting": "HL-60", "result": "> 100", "unit": "µM"}, {"measurement": "IC50", "setting": "SK-MES-1", "result": 5.2, "unit": "µM"}]}, {"compound": "CC1(C)CC(=O)c2c(ncc3c2C(=O)c2cccc(O)c2C3=O)C1", "values": [{"measurement": "IC50", "setting": "MRC5", "result": 6.5, "unit": "µM"}, {"measurement": "IC50", "setting": "AGS", "result": 11.6, "unit": "µM"}, {"measurement": "IC50", "setting": "J82", "result": 3.9, "unit": "µM"}, {"measurement": "IC50", "setting": "HL-60", "result": 2.3, "unit": "µM"}, {"measurement": "IC50", "setting": "SK-MES-1", "result": 3.6, "unit": "µM"}]}, {"compound": "Cc1nc2c(c3c1C(=O)c1c(O)cccc1C3=O)C(=O)CC(C)(C)C2", "values": [{"measurement": "IC50", "setting": "MRC5", "result": 5.5, "unit": "µM"}, {"measurement": "IC50", "setting": "AGS", "result": 7.4, "unit": "µM"}, {"measurement": "IC50", "setting": "J82", "result": 15.7, "unit": "µM"}, {"measurement": "IC50", "setting": "HL-60", "result": 11.8, "unit": "µM"}, {"measurement": "IC50", "setting": "SK-MES-1", "result": 4.6, "unit": "µM"}]}, {"compound": "O=C1c2cnc3c(c2C(=O)c2cccc(O)c21)CCCC3", "values": [{"measurement": "IC50", "setting": "MRC5", "result": 63.6, "unit": "µM"}, {"measurement": "IC50", "setting": "AGS", "result": 36.8, "unit": "µM"}, {"measurement": "IC50", "setting": "J82", "result": 20.5, "unit": "µM"}, {"measurement": "IC50", "setting": "HL-60", "result": 45.8, "unit": "µM"}, {"measurement": "IC50", "setting": "SK-MES-1", "result": 36.8, "unit": "µM"}]}, {"compound": "Cc1nc2c(c3c1C(=O)c1c(O)cccc1C3=O)C(=O)CCC2", "values": [{"measurement": "IC50", "setting": "MRC5", "result": 17.3, "unit": "µM"}, {"measurement": "IC50", "setting": "AGS", "result": 4.5, "unit": "µM"}, {"measurement": "IC50", "setting": "J82", "result": 17.5, "unit": "µM"}, {"measurement": "IC50", "setting": "HL-60", "result": 23.9, "unit": "µM"}, {"measurement": "IC50", "setting": "SK-MES-1", "result": 10.2, "unit": "µM"}]}, {"compound": "Cc1nc2c(c3c1C(=O)c1ccccc1C3=O)C(=O)CC(C)(C)C2", "values": [{"measurement": "IC50", "setting": "MRC5", "result": 15.9, "unit": "µM"}, {"measurement": "IC50", "setting": "AGS", "result": 4.5, "unit": "µM"}, {"measurement": "IC50", "setting": "J82", "result": 18.9, "unit": "µM"}, {"measurement": "IC50", "setting": "HL-60", "result": 17.5, "unit": "µM"}, {"measurement": "IC50", "setting": "SK-MES-1", "result": 13.5, "unit": "µM"}]}, {"compound": "Cc1cnc2c(c1)C(=O)c1c(cnc3c1C(=O)CCC3)C2=O", "values": [{"measurement": "IC50", "setting": "MRC5", "result": 0.73, "unit": "µM"}, {"measurement": "IC50", "setting": "AGS", "result": 1.2, "unit": "µM"}, {"measurement": "IC50", "setting": "J82", "result": 1.8, "unit": "µM"}, {"measurement": "IC50", "setting": "HL-60", "result": 2.4, "unit": "µM"}, {"measurement": "IC50", "setting": "SK-MES-1", "result": 1.7, "unit": "µM"}]}, {"compound": "O=C1C=CC(=O)c2c1cnc1c2C(=O)CCC1", "values": [{"measurement": "IC50", "setting": "MRC5", "result": 20.2, "unit": "µM"}, {"measurement": "IC50", "setting": "AGS", "result": 19.4, "unit": "µM"}, {"measurement": "IC50", "setting": "J82", "result": 38.8, "unit": "µM"}, {"measurement": "IC50", "setting": "HL-60", "result": 15.8, "unit": "µM"}, {"measurement": "IC50", "setting": "SK-MES-1", "result": 25.7, "unit": "µM"}]}]}
